# Measurements as given in paper PMC10573254, “Development of Novel Class of Phenylpyrazolo[3,4-d]pyrimidine-Based Analogs with Potent Anticancer Activity and Multitarget Enzyme Inhibition Supported by Docking Studies” (International Journal of Molecular Sciences, 2023).
# Read-outs that look alike come from different tables or passages of the source.
# Experiments:
# [1] = system: WI-38; assay: MTT assay on normal cell line WI-38; assay type: cell-based; conditions: normal human diploid fibroblasts
# Procedure: (§1) According to our design, the tested compounds are classified into four categories based on the length and the chemotype of the spacer (Figure 3). In the first category, we used monosubstituted hydrazone linker. […] The second category is represented by […] hydrazone linker.
# (§2) The cytotoxic activity was assessed using the 3-(4,5-dimethylthiazol-2-yl)-2,5-diphenyl tetrazolium bromide (MTT) colorimetric assay, as reported previously. Doxorubicin was used as a reference standard, and DMSO was used as a negative control. Briefly, the designated cell lines were cultured at a concentration of 5 × 10^4 cell/well in 96-well plates. The cells were incubated for 24 h under optimum conditions. Following this, the designated molecules were introduced (in serial dilutions from 0 to 50 μg/mL), and the cells were incubated for an additional 24 h. Following this, the media were withdrawn, and 100 μL of fresh medium was added. Then, 10 µL of the 12 mM MTT stock solution was administered to each well. The plates were then incubated for 4 h. […] An 85-μL aliquot of the media was removed from the wells, and 50 µL of DMSO was added to each well and mixed thoroughly with the pipette and incubated at 37 °C for 10 min. Then, the optical density was measured at 590 nm with the microplate reader (Sunrise, TECAN, Inc., Morrisville, NC, USA).
# [2] = system: HePG-2; assay: MTT cytotoxicity assay, HePG-2; assay type: cell-based; conditions: Homo sapiens, HepG2
# Procedure: as §2
# [3] = target: EGFR^WT (Homo sapiens, UniProt P00533); assay: In vitro EGFR enzyme inhibitory assay; assay type: biochemical; conditions: for EGFR %inh at conc 0.01: conc 0.01, unit not given; for EGFR %inh at conc 0.1: conc 0.1, unit not given; for EGFR %inh at conc 1: conc 1, unit not given; for EGFR %inh at conc 10: conc 10, unit not given
# Sequence of EGFR^WT (P00533 25-1210): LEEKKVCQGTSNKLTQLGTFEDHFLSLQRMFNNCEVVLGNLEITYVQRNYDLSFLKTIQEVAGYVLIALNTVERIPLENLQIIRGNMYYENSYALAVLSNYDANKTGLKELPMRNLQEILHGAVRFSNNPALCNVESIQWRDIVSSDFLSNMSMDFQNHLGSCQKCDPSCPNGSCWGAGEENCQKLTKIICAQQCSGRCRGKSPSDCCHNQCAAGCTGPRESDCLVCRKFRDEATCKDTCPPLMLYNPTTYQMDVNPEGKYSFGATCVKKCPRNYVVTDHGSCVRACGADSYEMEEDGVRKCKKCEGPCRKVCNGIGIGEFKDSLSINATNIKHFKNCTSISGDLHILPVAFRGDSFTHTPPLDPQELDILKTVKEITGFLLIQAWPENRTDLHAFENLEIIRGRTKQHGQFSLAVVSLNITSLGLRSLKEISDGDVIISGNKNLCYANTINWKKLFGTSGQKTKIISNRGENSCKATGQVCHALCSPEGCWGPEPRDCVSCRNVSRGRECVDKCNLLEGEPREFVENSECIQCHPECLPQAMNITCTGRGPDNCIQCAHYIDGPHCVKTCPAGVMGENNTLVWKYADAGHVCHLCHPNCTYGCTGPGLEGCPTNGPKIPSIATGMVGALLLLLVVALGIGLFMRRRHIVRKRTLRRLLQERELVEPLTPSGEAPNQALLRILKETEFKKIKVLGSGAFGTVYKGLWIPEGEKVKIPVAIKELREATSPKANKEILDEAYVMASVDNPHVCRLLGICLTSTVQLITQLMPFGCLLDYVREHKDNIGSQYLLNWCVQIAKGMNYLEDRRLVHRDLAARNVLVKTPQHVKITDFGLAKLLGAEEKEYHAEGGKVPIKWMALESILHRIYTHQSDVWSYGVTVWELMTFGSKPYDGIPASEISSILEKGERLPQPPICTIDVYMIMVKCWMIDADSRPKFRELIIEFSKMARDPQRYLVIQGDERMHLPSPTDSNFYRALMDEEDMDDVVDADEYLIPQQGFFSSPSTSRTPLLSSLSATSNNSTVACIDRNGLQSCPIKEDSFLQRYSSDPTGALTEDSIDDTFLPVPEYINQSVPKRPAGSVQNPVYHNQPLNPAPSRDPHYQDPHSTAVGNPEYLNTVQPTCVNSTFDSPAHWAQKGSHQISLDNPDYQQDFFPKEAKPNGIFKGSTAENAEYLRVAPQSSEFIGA
# [4] = target: T1, Topo-II (Homo sapiens, UniProt Q02880); assay: In vitro Topo II inhibitory assay; assay type: biochemical; conditions: for TOPO IiB %inh at conc 0.1: conc 0.1, unit not given; for TOPO IiB %inh at conc 1: conc 1, unit not given; for TOPO IiB %inh at conc 10: conc 10, unit not given; for TOPO IiB %inh at conc 100: conc 100, unit not given
# T1 construct: purchased
# Procedure: (§3) Curve fitting was performed using GraphPad Prism.
# (§4) (1 picture or pasted object on this page, not shown here)
# [5] = target: EGFR^T790M (Homo sapiens, UniProt P00533, T790M); assay: In vitro EGFR T790M kinase inhibitory assay; conditions: for EGFR T790M %inh at conc 0.01: conc 0.01 (conc.ng/ml); for EGFR T790M %inh at conc 0.1: conc 0.1 (conc.ng/ml); for EGFR T790M %inh at conc 1: conc 1 (conc.ng/ml); for EGFR T790M %inh at conc 10: conc 10 (conc.ng/ml)
# Sequence of EGFR^T790M (P00533 25-1210 T790M): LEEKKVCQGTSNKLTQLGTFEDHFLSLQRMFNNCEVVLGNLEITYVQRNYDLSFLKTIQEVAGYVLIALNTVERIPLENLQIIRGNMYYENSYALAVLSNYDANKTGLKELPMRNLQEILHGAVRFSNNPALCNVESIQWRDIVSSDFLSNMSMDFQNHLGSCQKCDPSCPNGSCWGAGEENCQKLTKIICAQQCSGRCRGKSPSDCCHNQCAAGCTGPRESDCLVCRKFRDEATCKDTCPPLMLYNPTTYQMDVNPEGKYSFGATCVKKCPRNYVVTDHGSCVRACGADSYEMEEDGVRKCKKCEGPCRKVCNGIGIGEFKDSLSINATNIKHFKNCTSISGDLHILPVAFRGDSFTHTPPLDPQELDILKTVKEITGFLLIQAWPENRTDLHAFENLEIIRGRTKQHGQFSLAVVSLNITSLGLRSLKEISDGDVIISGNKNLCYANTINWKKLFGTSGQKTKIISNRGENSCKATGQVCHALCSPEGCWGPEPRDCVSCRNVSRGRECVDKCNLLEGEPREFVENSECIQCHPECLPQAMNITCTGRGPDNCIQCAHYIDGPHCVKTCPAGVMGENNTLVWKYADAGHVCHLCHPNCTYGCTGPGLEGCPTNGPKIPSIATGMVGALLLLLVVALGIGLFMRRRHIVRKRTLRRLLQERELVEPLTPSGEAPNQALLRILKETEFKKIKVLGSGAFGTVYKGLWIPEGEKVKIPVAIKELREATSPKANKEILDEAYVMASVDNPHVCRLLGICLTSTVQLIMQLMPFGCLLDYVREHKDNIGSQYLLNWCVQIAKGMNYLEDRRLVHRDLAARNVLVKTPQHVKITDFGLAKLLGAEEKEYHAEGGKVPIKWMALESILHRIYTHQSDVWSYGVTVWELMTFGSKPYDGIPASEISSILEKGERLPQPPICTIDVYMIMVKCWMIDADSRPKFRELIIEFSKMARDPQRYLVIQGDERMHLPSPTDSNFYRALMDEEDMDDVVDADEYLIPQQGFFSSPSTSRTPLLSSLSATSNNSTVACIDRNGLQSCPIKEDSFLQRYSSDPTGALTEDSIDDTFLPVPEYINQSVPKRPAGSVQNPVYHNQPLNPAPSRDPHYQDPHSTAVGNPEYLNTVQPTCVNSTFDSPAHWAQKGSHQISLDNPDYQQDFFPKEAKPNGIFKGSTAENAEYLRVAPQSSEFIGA
# Procedure: The assays were conducted in Vacsera (Giza, Egypt). Curve fitting was performed using GraphPad Prism. Data are represented as means ± SD from three independent experiments.
# Assay : EGFR-T490M kinase assay
# Reader : Tecan-spark reader
# Kit used : BPS bioscience EGFR assay kit.
# [6] = system: HCT-116; assay: MTT cytotoxicity assay, HCT-116; assay type: cell-based; conditions: Homo sapiens
# Procedure: (§5) The cytotoxic activity was assessed using the 3-(4,5-dimethylthiazol-2-yl)-2,5-diphenyl tetrazolium bromide (MTT) colorimetric assay, as reported previously [62, 63]. […] Briefly, the designated cell lines were cultured at a concentration of 5 × 10^4 cell/well in 96-well plates. The cells were incubated for 24 h under optimum conditions. Following this, the designated molecules were introduced (in serial dilutions from 0 to 50 μg/mL), and the cells were incubated for an additional 24 h. Following this, the media were withdrawn, and 100 μL of fresh medium was added. Then, 10 µL of the 12 mM MTT stock solution was administered to each well. The plates were then incubated for 4 h. Then, the cells were exposed to different compounds at the desired concentrations (0.01, 0.1, 1, 10, and 100 µM) or to 1% dimethyl sulfoxide (DMSO) for 48 and 72 h. […] Then, the optical density was measured at 590 nm with the microplate reader (Sunrise, TECAN, Inc., Morrisville, NC, USA).
# [7] = target: VEGFR-2 (Homo sapiens, UniProt P35968); assay: In vitro VEGFR2 enzyme inhibitory assay; assay type: biochemical; conditions: for VEGFR2 %inh at conc 0.01: conc 0.01, unit not given; for VEGFR2 %inh at conc 0.1: conc 0.1, unit not given; for VEGFR2 %inh at conc 1: conc 1, unit not given; for VEGFR2 %inh at conc 10: conc 10, unit not given; for target selectivity index EGFR over VGFR-2: fold, EGFR^WT versus VGFR-2
# Sequence of VEGFR-2 (P35968 20-1356): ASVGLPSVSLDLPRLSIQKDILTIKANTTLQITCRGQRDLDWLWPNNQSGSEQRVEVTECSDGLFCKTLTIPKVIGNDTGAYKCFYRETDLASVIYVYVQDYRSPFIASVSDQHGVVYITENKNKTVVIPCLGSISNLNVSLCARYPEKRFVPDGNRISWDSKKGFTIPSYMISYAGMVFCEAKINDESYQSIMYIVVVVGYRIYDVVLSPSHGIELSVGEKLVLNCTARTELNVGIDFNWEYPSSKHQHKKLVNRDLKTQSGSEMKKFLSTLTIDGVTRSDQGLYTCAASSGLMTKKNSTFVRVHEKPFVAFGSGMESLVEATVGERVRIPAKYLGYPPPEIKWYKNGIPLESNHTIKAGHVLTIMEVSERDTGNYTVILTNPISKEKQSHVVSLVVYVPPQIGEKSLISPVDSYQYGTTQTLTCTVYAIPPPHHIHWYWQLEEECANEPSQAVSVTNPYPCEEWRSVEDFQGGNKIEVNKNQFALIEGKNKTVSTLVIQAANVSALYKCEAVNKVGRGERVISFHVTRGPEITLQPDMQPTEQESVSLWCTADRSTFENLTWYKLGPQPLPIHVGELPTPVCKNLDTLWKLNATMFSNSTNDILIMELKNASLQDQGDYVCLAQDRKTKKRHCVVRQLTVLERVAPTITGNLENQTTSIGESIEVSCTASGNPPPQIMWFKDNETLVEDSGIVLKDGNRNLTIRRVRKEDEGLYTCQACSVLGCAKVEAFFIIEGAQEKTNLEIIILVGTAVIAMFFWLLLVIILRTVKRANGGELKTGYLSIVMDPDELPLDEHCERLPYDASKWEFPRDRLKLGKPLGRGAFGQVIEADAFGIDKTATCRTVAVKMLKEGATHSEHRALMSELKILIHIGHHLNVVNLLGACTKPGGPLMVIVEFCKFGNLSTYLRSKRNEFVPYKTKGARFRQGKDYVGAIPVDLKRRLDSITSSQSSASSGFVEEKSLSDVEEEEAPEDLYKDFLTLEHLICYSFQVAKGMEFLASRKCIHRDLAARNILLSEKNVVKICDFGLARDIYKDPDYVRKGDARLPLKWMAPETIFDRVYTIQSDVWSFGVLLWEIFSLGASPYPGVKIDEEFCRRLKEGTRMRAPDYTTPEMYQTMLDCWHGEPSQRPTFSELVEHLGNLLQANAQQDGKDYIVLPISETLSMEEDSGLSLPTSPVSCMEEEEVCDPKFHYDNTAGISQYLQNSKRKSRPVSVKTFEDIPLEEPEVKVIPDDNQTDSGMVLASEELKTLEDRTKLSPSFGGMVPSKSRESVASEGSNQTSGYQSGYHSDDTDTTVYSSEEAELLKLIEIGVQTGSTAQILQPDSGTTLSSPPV
# Procedure: as §3, §4
# [8] = system: MCF-7, HCT116, and HePG-2; assay: MTT assay against three malignant cell lines (summary); assay type: cell-based; conditions: Homo sapiens, read-out: IC50 cytotoxicity (range over cell lines)
# Procedure: as §1, §2
# [9] = system: MCF-7; assay: MTT cytotoxicity assay, MCF-7; assay type: cell-based; conditions: Homo sapiens, MCF7
# Procedure: as §5
# [10] = system: MCF-7 cells; assay: Cell cycle analysis (propidium iodide flow cytometry); assay type: cell-based, human; conditions: MCF-7, 3.81 μM for 24 h (text: 1 μM)
# [11] = system: MCF-7 cells; assay: Annexin V-FITC/PI apoptosis assay; assay type: cell-based, human; conditions: MCF-7, 3.81 μM
# Procedure: We used annexin V-binding studies via flow cytometer to confirm the apoptosis induction by our compound. The apoptotic nature of 5i against MCF-7 cells was tested via flow cytometry detection after double-staining with Annexin V-FITC and propidium iodide (PI).
# Annexin V-FITC apoptosis assay was conducted utilizing the Annexin V-FITC/PI double staining detection kit (BD Pharmingen, San Diego, CA, USA), as described elsewhere.
# [12] = system: Topo-II; assay: In vitro Topo II inhibitory assay; assay type: biochemical, Human; conditions: fold, EGFR^WT versus Topo-II
# Procedure: as §3, §4
# [13] = 24 h incubation, read-out: IC50 HePG-2 24 h
# [14] = 48 h incubation, read-out: IC50 HePG-2 48 h
# [15] = 72 h incubation, read-out: IC50 HePG-2 72 h
# [16] = MTT, liver cancer cells, read-out: IC50 HePG-2
# [17] = supplement lab report, read-out: EGFR IC50 (lab report) (converted)
# [18] = supplement lab report, Human DNA Topoisomerase 2B Kit, read-out: TOP2a IC50 (lab report) (converted)
# [19] = HCT-116, read-out: IC50 HCT-116, MTT, colon cancer cells
# [20] = HCT-116, 24 h incubation, read-out: IC50 HCT116 24 h
# [21] = HCT-116, 48 h incubation, read-out: IC50 HCT116 48 h
# [22] = HCT-116, 72 h incubation, read-out: IC50 HCT116 72 h
# [23] = supplement lab report, read-out: VEGFR2 IC50 (lab report) (converted)
# [24] = 24 h incubation, read-out: IC50 MCF-7 24 h
# [25] = 48 h incubation, read-out: IC50 MCF-7 48 h
# [26] = 72 h incubation, read-out: IC50 MCF-7 72 h
# [27] = MTT, breast cancer cells, read-out: IC50 MCF-7
smiles,measurement,setting,value
"Cc1nc(NN=Cc2ccc(O)cc2)c2cnn(-c3ccccc3)c2n1 [Compound 5b, 4-((2-(6-Methyl-1-phenyl-1H-pyrazolo[3,4-d]pyrimidin-4-yl)hydrazineylidene)methyl)phenol]",IC50,"[1]; Homo sapiens, WI-38, MTT",> 35 µM
same,IC50,[1]; MTT,35 ± 0.3 µM
same,melting point,,162 to 164 °C
same,IC50,[2]; [13],9.12 ± 0.7 µM
same,IC50,[2]; [14],7.6 ± 0.7 µM
same,IC50,[2]; [15],5.16 ± 0.4 µM
same,IC50,[2]; [16],9.12 ± 0.7 µM
same,EGFR %inh at conc 0.01,[3],28%
same,EGFR %inh at conc 0.1,[3],46%
same,EGFR %inh at conc 1,[3],71%
same,EGFR %inh at conc 10,[3],87%
same,IC50,[3]; [17],0.366 µM
same,TOPO IiB %inh at conc 0.1,[4],6.7%
same,TOPO IiB %inh at conc 1,[4],12%
same,TOPO IiB %inh at conc 10,[4],31%
same,TOPO IiB %inh at conc 100,[4],66%
same,IC50,[4]; read-out: IC50 Topo-II,108 ± 2.2 µM
same,IC50,[4]; [18],108 µM
same,IC50,[5],1.93 ± 0.08 µM
same,EGFR T790M %inh at conc 0.01,[5],37%
same,EGFR T790M %inh at conc 0.1,[5],54%
same,EGFR T790M %inh at conc 1,[5],77%
same,EGFR T790M %inh at conc 10,[5],87%
same,IC50,[6]; [19],5.65 ± 0.3 µM
same,IC50,[6]; [20],5.65 ± 0.3 µM
same,IC50,[6]; [21],9.82 ± 0.9 µM
same,IC50,[6]; [22],4.09 ± 0.3 µM
same,VEGFR2 %inh at conc 0.01,[7],13%
same,VEGFR2 %inh at conc 0.1,[7],25%
same,VEGFR2 %inh at conc 1,[7],50%
same,VEGFR2 %inh at conc 10,[7],70%
same,target selectivity index EGFR over VGFR-2,[7],20
same,IC50,[7]; read-out: IC50 VGFR2,15.7 ± 0.32 µM
same,IC50,[7]; [23],15.7 µM
same,IC50,[8],3 to 10 µM
same,IC50,[9]; [24],10.5 ± 0.7 µM
same,IC50,[9]; [25],9.82 ± 0.9 µM
same,IC50,[9]; [26],5.16 ± 0.4 µM
same,IC50,[9]; [27],10.5 ± 0.7 µM
"CC(=NNc1nc(C)nc2c1cnn2-c1ccccc1)c1ccccc1 [Compound 5i, 6-Methyl-1-phenyl-4-(2-(1-phenylethylidene)hydrazinyl)-1H-pyrazolo[3,4-d]pyrimidine]",melting point,,245 to 247 °C
same,DNA content %G0-G1,[10],49.63%
same,DNA content %Pre-G1,[10],36.06%
same,DNA content %S,[10],43.12%
same,IC50,[2]; [13],6.38 ± 0.1 µM
same,IC50,[2]; [14],3.34 ± 0.2 µM
same,IC50,[2]; [15],2.42 ± 0.2 µM
same,IC50,[2]; [16],6.38 ± 0.1 µM
same,Apoptosis Total,[11]; 24 h,36.06%
same,Necrosis,[11]; 24 h,4.33%
same,Apoptosis Early,[11]; 24 h (text: 48 h),12.62%
same,Apoptosis Late,[11]; 24 h (text: 48 h),19.11%
same,EGFR %inh at conc 0.01,[3],36%
same,EGFR %inh at conc 0.1,[3],52%
same,EGFR %inh at conc 1,[3],73%
same,EGFR %inh at conc 10,[3],88%
same,IC50,[3]; [17],0.187 µM
same,target selectivity index EGFR over Topo-II,[12],66
same,TOPO IiB %inh at conc 0.1,[4],13%
same,TOPO IiB %inh at conc 1,[4],27%
same,TOPO IiB %inh at conc 10,[4],51%
same,TOPO IiB %inh at conc 100,[4],74%
same,IC50,[4]; read-out: IC50 Topo-II,24.7 ± 0.51 µM
same,IC50,[4]; [18],24.7 µM
same,IC50,[5],0.56 ± 0.04 µM
same,EGFR T790M %inh at conc 0.01,[5],37%
same,EGFR T790M %inh at conc 0.1,[5],50%
same,EGFR T790M %inh at conc 1,[5],76%
same,EGFR T790M %inh at conc 10,[5],89%
same,IC50,[6]; [19],4.38 ± 0.2 µM
same,IC50,[6]; [20],4.38 ± 0.2 µM
same,IC50,[6]; [21],4.01 ± 0.3 µM
same,IC50,[6]; [22],2.76 ± 0.3 µM
same,VEGFR2 %inh at conc 0.01,[7],7.5%
same,VEGFR2 %inh at conc 0.1,[7],19%
same,VEGFR2 %inh at conc 1,[7],58%
same,VEGFR2 %inh at conc 10,[7],84%
same,target selectivity index EGFR over VGFR-2,[7],20
same,IC50,[7]; read-out: IC50 VGFR2,7.6 ± 0.15 µM
same,IC50,[7]; [23],7.58 µM
same,IC50,[8],3 to 10 µM
same,IC50,[9]; [24],3.81 ± 0.3 µM
same,IC50,[9]; [25],3.34 ± 0.2 µM
same,IC50,[9]; [26],1.24 ± 0.3 µM
same,IC50,[9]; [27],3.81 ± 0.3 µM
"Cc1nc(NNC(=S)Nc2ccccc2)c2cnn(-c3ccccc3)c2n1 [Compound 9e, 2-(6-Methyl-1-phenyl-1H-pyrazolo[3,4-d]pyrimidin-4-yl)-N-phenylhydrazinecarbothioamide]",IC50,"[1]; Homo sapiens, WI-38, MTT",> 35 µM
same,IC50,[1]; MTT,66 ± 0.23 µM
same,melting point,,281 to 282 °C
same,IC50,[2]; [13],7.8 ± 0.4 µM
same,IC50,[2]; [14],8.28 ± 0.8 µM
same,IC50,[2]; [15],5.93 ± 0.5 µM
same,IC50,[2]; [16],7.8 ± 0.4 µM
same,EGFR %inh at conc 0.01,[3],20%
same,EGFR %inh at conc 0.1,[3],42%
same,EGFR %inh at conc 1,[3],58%
same,EGFR %inh at conc 10,[3],83%
same,IC50,[3]; read-out: IC50 EGFR^WT,0.77 ± 0.018 µM
same,IC50,[3]; [17],0.77 µM
same,target selectivity index EGFR over Topo-II,[12],31
same,TOPO IiB %inh at conc 0.1,[4],4%
same,TOPO IiB %inh at conc 1,[4],16%
same,TOPO IiB %inh at conc 10,[4],34%
same,TOPO IiB %inh at conc 100,[4],65%
same,IC50,[4]; read-out: IC50 Topo-II,24.6 ± 0.54 µM
same,IC50,[4]; [18],24.6 µM
same,IC50,[6]; [19],6.87 ± 0.5 µM
same,IC50,[6]; [20],6.87 ± 0.5 µM
same,IC50,[6]; [21],6.77 ± 0.4 µM
same,IC50,[6]; [22],5.55 ± 0.4 µM
same,VEGFR2 %inh at conc 0.01,[7],14%
same,VEGFR2 %inh at conc 0.1,[7],26%
same,VEGFR2 %inh at conc 1,[7],46%
same,VEGFR2 %inh at conc 10,[7],72%
same,target selectivity index EGFR over VGFR-2,[7],21
same,IC50,[7]; read-out: IC50 VGFR2,16.2 ± 0.36 µM
same,IC50,[7]; [23],16.2 µM
same,IC50,[8],3 to 10 µM
same,IC50,[9]; [24],8.99 ± 0.5 µM
same,IC50,[9]; [25],8.16 ± 0.8 µM
same,IC50,[9]; [26],7.45 ± 0.7 µM
same,IC50,[9]; [27],8.99 ± 0.5 µM
